Results reported in publication PMC11082216, “A genetically encoded biosensor to monitor dynamic changes of c-di-GMP with high temporal resolution” (Nature Communications, 2024).

Assays:
PdeA [1] = molecular target: T1, PdeA (Caulobacter vibrioides, UniProt A0A0H3CDG5); experiment: purified phosphodiesterase turnover of c-di-GMP read with cdGreen2; format: biochemical
T1 sequence (A0A0H3CDG5 1-555): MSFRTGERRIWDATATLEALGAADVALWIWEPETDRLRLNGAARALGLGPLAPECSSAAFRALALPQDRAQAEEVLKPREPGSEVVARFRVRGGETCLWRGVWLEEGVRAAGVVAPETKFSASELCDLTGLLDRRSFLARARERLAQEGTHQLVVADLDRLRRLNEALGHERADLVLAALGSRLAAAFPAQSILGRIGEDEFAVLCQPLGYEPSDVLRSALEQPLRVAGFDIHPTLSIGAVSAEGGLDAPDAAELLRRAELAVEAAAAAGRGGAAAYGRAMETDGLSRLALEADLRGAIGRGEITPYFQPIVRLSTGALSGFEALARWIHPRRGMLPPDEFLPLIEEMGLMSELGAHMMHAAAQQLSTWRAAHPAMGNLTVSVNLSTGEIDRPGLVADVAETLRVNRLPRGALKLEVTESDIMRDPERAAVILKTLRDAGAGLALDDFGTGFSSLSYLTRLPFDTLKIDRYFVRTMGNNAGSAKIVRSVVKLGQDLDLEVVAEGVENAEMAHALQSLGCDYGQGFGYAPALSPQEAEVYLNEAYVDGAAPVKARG

PdeA [2] = molecular target: T1, PdeA; experiment: activation of purified PdeA phosphodiesterase, c-di-GMP turnover read with cdGreen2, GTP dose-response; format: biochemical

Row | Kd (PdeA [2]) | SMILES | purified phosphodiesterase turnover of c-di-GMP read with cdGreen2 (PdeA [1])
1 | – | Nc1nc2c(ncn2[C@@H]2O[C@@H]3COP(=O)(O)O[C@H]4[C@@H](O)[C@H](n5cnc6c(=O)[nH]c(N)nc65)O[C@@H]4COP(=O)(O)O[C@H]3[C@H]2O)c(=O)[nH]1 [c-di-GMP] | purified cdGreen2 also accurately monitored the breakdown of c-di-GMP by all PDEs tested
2 | ~3.4 µM | Nc1nc2c(ncn2[C@@H]2O[C@H](COP(=O)(O)OP(=O)(O)OP(=O)(O)O)[C@@H](O)[C@H]2O)c(=O)[nH]1 [GTP] | –
